Measured values reported in the supplement of paper PMC10627819.

Tests used:
B. subtilis 168 = experiment: Bliss interaction score (quartile over a dose matrix) (fitness difference); higher = more antagonism (negative = synergy)
Procedure, shortened: (§1)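 Quartiles summarise the Bliss score over technical, biological and donor/recipient replicates, where the score is observed minus expected fitness under a product model. Expected fitness uses single-drug values inferred from combination data. Fitness is OD595 at entry into stationary phase over the plate's robust no-drug mean, capped at 1.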

S. aureus DSM 20231 [1] = experiment: as above
Procedure, shortened: as §1

S. aureus Newman [2] = experiment: as above
Procedure, shortened: as §1

S. pneumoniae D39V = experiment: as above
Procedure, shortened: as §1

S. aureus DSM 20231 [3] = experiment: fitness (endpoint OD595 vs no drug) (fraction); higher = more growth
Procedure, shortened: (§2)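 In 384-well plates at 37 °C, cultures began at OD595 0.01 in 30 µl, with 55 µl used for S. pneumoniae. OD595 readings every 30 min for 14 h were corrected by the first reading. Fitness divides the stationary-phase transition optical density by the robust mean of no-drug control wells. The result is capped at 1.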

S. aureus Newman [4] = experiment: as above
Procedure, shortened: as §2

[5] = first compound 0.75 µg/mL, partner 0.125 µg/mL
[6] = first compound 1.5 µg/mL, partner 0.125 µg/mL
[7] = first compound 3 µg/mL, partner 0.0312 µg/mL
[8] = first compound 3 µg/mL, partner 0.0625 µg/mL
[9] = first compound 3 µg/mL, partner 0.125 µg/mL
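Wherever Bliss interaction score (quartile over a dose matrix) is given: first quartile when negative (synergy) and third quartile when positive (antagonism).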

SMILES | Bliss interaction score (B. subtilis 168) | Bliss interaction score (S. aureus DSM 20231 [1]) | Bliss interaction score (S. aureus Newman [2]) | Bliss interaction score (S. pneumoniae D39V) | also measured
CC(=O)OC[C@H]1O[C@@H]([S-])[C@H](OC(C)=O)[C@@H](OC(C)=O)[C@@H]1OC(C)=O.CCP(CC)CC.[Au+] [Auranofin] + CCC[C@@H]1C[C@@H](C(=O)N[C@@H]([C@H]2O[C@H](SC)[C@H](O)[C@@H](O)[C@H]2O)[C@@H](C)O)N(C)C1 [Lincomycin] | 0.066 | 0.0235 | 0.0853 | -0.0496 | 
CC(=O)OC[C@H]1O[C@@H]([S-])[C@H](OC(C)=O)[C@@H](OC(C)=O)[C@@H]1OC(C)=O.CCP(CC)CC.[Au+] [Auranofin] + CCC[C@@H]1C[C@@H](C(=O)N[C@@H]([C@H]2O[C@H](SC)[C@H](O)[C@@H](O)[C@H]2O)[C@H](C)Cl)N(C)C1 [Clindamycin] | 0.0424 | 0.0307 | 0.0741 | 0.0341 | 
CC(=O)OC[C@H]1O[C@@H]([S-])[C@H](OC(C)=O)[C@@H](OC(C)=O)[C@@H]1OC(C)=O.CCP(CC)CC.[Au+] [Auranofin] + CCN(CC)CCOC(=O)c1ccc(N)cc1 [Procaine] | -0.0372 | -0.0516 | -0.0631 | -0.0391 | 
CC(=O)OC[C@H]1O[C@@H]([S-])[C@H](OC(C)=O)[C@@H](OC(C)=O)[C@@H]1OC(C)=O.CCP(CC)CC.[Au+] [Auranofin] + CC[C@H]1OC(=O)[C@H](C)C(=O)[C@H](C)[C@@H](O[C@@H]2O[C@H](C)C[C@H](N(C)C)[C@H]2O)[C@](C)(OC)C[C@@H](C)C(=O)[C@H](C)[C@H]2N(CCCCn3cnc(-c4cccnc4)c3)C(=O)O[C@]12C [Telithromycin] | -0.0304 | 0.0187 | 0.0309 | 0.0324 | 
CC(=O)OC[C@H]1O[C@@H]([S-])[C@H](OC(C)=O)[C@@H](OC(C)=O)[C@@H]1OC(C)=O.CCP(CC)CC.[Au+] [Auranofin] + CC[C@H]1OC(=O)[C@H](C)[C@@H](O[C@H]2C[C@@](C)(OC)[C@@H](O)[C@H](C)O2)[C@H](C)[C@@H](O[C@@H]2O[C@H](C)C[C@H](N(C)C)[C@H]2O)[C@](C)(O)C[C@@H](C)C(=O)[C@H](C)[C@@H](O)[C@]1(C)O [Erythromycin] | 0.0564 | 0.0169 | 0.0459 | 0.0643 | 
CC(=O)OC[C@H]1O[C@@H]([S-])[C@H](OC(C)=O)[C@@H](OC(C)=O)[C@@H]1OC(C)=O.CCP(CC)CC.[Au+] [Auranofin] + CC[C@H]1OC(=O)[C@H](C)[C@@H](O[C@H]2C[C@@](C)(OC)[C@@H](O)[C@H](C)O2)[C@H](C)[C@@H](O[C@@H]2O[C@H](C)C[C@H](N(C)C)[C@H]2O)[C@](C)(O)C[C@@H](C)CN(C)[C@H](C)[C@@H](O)[C@]1(C)O [Azithromycin] | 0.0589 | 0.0282 | 0.137 | -0.038 | 
CC(=O)OC[C@H]1O[C@@H]([S-])[C@H](OC(C)=O)[C@@H](OC(C)=O)[C@@H]1OC(C)=O.CCP(CC)CC.[Au+] [Auranofin] + CC[C@H]1OC(=O)[C@H](C)[C@@H](O[C@H]2C[C@@](C)(OC)[C@@H](O)[C@H](C)O2)[C@H](C)[C@@H](O[C@@H]2O[C@H](C)C[C@H](N(C)C)[C@H]2O)[C@](C)(OC)C[C@@H](C)C(=O)[C@H](C)[C@@H](O)[C@]1(C)O [Clarithromycin] | 0.0346 | 0.0219 | 0.0636 | 0.039 | 
O=C(N[C@H](CO)[C@H](O)c1ccc([N+](=O)[O-])cc1)C(Cl)Cl [Chloramphenicol] + CCC[C@@H]1C[C@@H](C(=O)N[C@@H]([C@H]2O[C@H](SC)[C@H](O)[C@@H](O)[C@H]2O)[C@H](C)Cl)N(C)C1 [Clindamycin] |  | 0.0541 | -0.0758 | 0.155 | fitness (S. aureus DSM 20231 [3]; first compound 0.75 µg/mL, partner 0.0625 µg/mL): 0.0956; fitness (S. aureus DSM 20231 [3]; [5]): 0.0527; fitness (S. aureus DSM 20231 [3]; [6]): 0.0897; fitness (S. aureus DSM 20231 [3]; [7]): 0.137; fitness (S. aureus DSM 20231 [3]; [8]): 0.0841; fitness (S. aureus DSM 20231 [3]; [9]): 0.0677; fitness (S. aureus Newman [4]; first compound 0.75 µg/mL, partner 0.0312 µg/mL): 0.539; fitness (S. aureus Newman [4]; [5]): 0.0906; fitness (S. aureus Newman [4]; first compound 1.5 µg/mL, partner 0.0312 µg/mL): 0.392; fitness (S. aureus Newman [4]; [6]): 0.0591; fitness (S. aureus Newman [4]; [7]): 0.11; fitness (S. aureus Newman [4]; [8]): 0.0976; fitness (S. aureus Newman [4]; [9]): 0.0645
